PubChem BioAssay AID256 (DTP/NCI, 2004)
Several values for one entry are separate records, joined by “and”; a condition that tells them apart may be missing. Equal entries are not always repeated. Toxic doses and inconclusive results are not listed.

Test system: CD2F1 mice, L1210 leukemia ip, survival T/C
Assay: NCI In Vivo Anticancer Drug Screen. Data for tumor model L1210 Leukemia (intraperitoneal) in CD2F1 (CDF1) mice
Conditions: endpoint: mean survival time, higher = longer survival
Procedure, shortened: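 Mice carrying a transplanted tumor received test compound or vehicle alone. The value is the measurement in the treated group divided by that in the vehicle-treated control group.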

[1] = dose: 12.5 mg/kg/injection, schedule: Q01DX009 (ip), vehicle: saline with Tween-80
[2] = dose: 25.0 mg/kg/injection, schedule: Q01DX009 (ip), vehicle: saline with Tween-80
[3] = dose: 50.0 mg/kg/injection, schedule: Q01DX009 (ip), vehicle: saline with Tween-80
[4] = dose: 100.0 mg/kg/injection, schedule: Q01DX009 (ip), vehicle: saline with Tween-80
[5] = dose: 200.0 mg/kg/injection, schedule: Q01DX009 (ip), vehicle: saline with Tween-80
[6] = dose: 50.0 mg/kg/injection, schedule: Q01DX009 (ip), vehicle: saline
[7] = dose: 100.0 mg/kg/injection, schedule: Q01DX009 (ip), vehicle: saline
[8] = dose: 100.0 mg/kg/injection, schedule: Q04DX003 (ip), vehicle: saline
[9] = dose: 200.0 mg/kg/injection, schedule: Q01DX009 (ip), vehicle: saline
[10] = dose: 200.0 mg/kg/injection, schedule: Q04DX003 (ip), vehicle: saline
[11] = dose: 400.0 mg/kg/injection, schedule: Q04DX003 (ip), vehicle: saline
[12] = dose: 400.0 mg/kg/injection, schedule: Q01DX009 (ip), vehicle: saline with Tween-80
[13] = dose: 100.0 mg/kg/injection, schedule: Q04DX003 (ip), vehicle: saline with Tween-80
[14] = dose: 200.0 mg/kg/injection, schedule: Q04DX003 (ip), vehicle: saline with Tween-80
[15] = dose: 400.0 mg/kg/injection, schedule: Q04DX003 (ip), vehicle: saline with Tween-80
[16] = dose: 25.0 mg/kg/injection, schedule: Q04DX003 (ip), vehicle: saline with Tween-80
[17] = dose: 50.0 mg/kg/injection, schedule: Q04DX003 (ip), vehicle: saline with Tween-80
[18] = dose: 100.0 mg/kg/injection, schedule: Q04DX002 (ip), vehicle: saline with Tween-80

Oc1ccc(I)c2cccnc12
T/C [1]: 98 % of control | T/C [2]: 98 % of control | T/C (dose: 45.0 mg/kg/injection, schedule: Q01DX009 (ip), vehicle: saline): 97 % of control | T/C [3]: 98 % of control | T/C (dose: 90.0 mg/kg/injection, schedule: Q01DX009 (ip), vehicle: saline): 108 % of control | T/C [4]: 98 % of control | T/C (dose: 180.0 mg/kg/injection, schedule: Q01DX009 (ip), vehicle: saline): 112 % of control | T/C [5]: 104 % of control

Nc1nc(N)c2nc(NCc3ccc(C(=O)NC(CCC(=O)O)C(=O)O)cc3)cnc2n1 (centres undefined)
T/C [6]: 103 % of control | T/C (dose: 50.0 mg/kg/injection, schedule: Q04DX003 (ip), vehicle: saline): 97 % of control | T/C [7]: 103 % of control | T/C [8]: 96 % of control | T/C [9]: 116 % of control | T/C [10]: 96 % of control | T/C [11]: 100 % of control

O=[N+]([O-])c1cc(S(=O)(=O)c2ccc(N3CCOCC3)c([N+](=O)[O-])c2)ccc1N1CCOCC1
T/C [4]: 93 % of control | T/C [5]: 101 % of control | T/C [12]: 92 % of control

CC1CCC(=O)C2(C)CC3OC(=O)C(C)C3C=C12 (centres undefined)
T/C [13]: 94 % of control | T/C [14]: 93 % of control | T/C [15]: 86 % of control

C1CC2CNC1CN2
T/C [8]: 96 % of control | T/C [10]: 98 % of control | T/C [11]: 94 % of control

O=[N+]([O-])c1ccc2c(N=Nc3c(O)ccc4ccccc34)c(O)cc(S(=O)(=O)O)c2c1
T/C [6]: 119 % of control | T/C [7]: 100 % of control | T/C [9]: 109 % of control

COc1cccc2c1C(=O)c1c(O)c3c(c(O)c1C2=O)C[C@@](O)(C(=O)CSc1ccccc1)C[C@@H]3OC1CC(N)C(O)C(C)O1 (some centres undefined)
T/C (dose: 0.78 mg/kg/injection, schedule: Q01DX009 (ip), vehicle: water): 107 % of control | T/C (dose: 1.56 mg/kg/injection, schedule: Q01DX009 (ip), vehicle: water): 106 % of control | T/C (dose: 3.13 mg/kg/injection, schedule: Q01DX009 (ip), vehicle: water): 101 % of control | T/C (dose: 6.25 mg/kg/injection, schedule: Q01DX009 (ip), vehicle: water): 106 % of control | T/C (dose: 12.5 mg/kg/injection, schedule: Q01DX009 (ip), vehicle: water): 101 % of control

O=C(O)c1ccccc1NCc1ccccc1
T/C [13]: 100 % of control | T/C [14]: 96 % of control | T/C [15]: 87 % of control

Cc1ccc(NC(=O)NC(C)C)c(C)c1
T/C (dose: 6.25 mg/kg/injection, schedule: Q01DX009 (ip), vehicle: saline with Tween-80): 97 % of control | T/C [1]: 100 % of control | T/C [2]: 97 % of control

Cc1ccc(CC(F)(F)F)cc1
T/C [13]: 100 % of control | T/C [14]: 100 % of control | T/C [15]: 108 % of control

CCOCC(=O)CC(C)C
T/C (dose: 100.0 mg/kg/injection, schedule: Q04DX003 (ip), vehicle: other): 100 % of control | T/C (dose: 200.0 mg/kg/injection, schedule: Q04DX003 (ip), vehicle: other): 91 % of control | T/C (dose: 400.0 mg/kg/injection, schedule: Q04DX003 (ip), vehicle: other): 100 % of control

[Cl][Pt+2][Cl].[NH-]c1cc(F)ccc1F.[NH-]c1cc(F)ccc1F
T/C (dose: 3.13 mg/kg/injection, schedule: Q04DX003 (ip), vehicle: distilled water + Tween-80): 112 % of control | T/C (dose: 6.25 mg/kg/injection, schedule: Q04DX003 (ip), vehicle: distilled water + Tween-80): 110 % of control | T/C (dose: 12.5 mg/kg/injection, schedule: Q04DX003 (ip), vehicle: distilled water + Tween-80): 112 % of control | T/C (dose: 25.0 mg/kg/injection, schedule: Q04DX003 (ip), vehicle: distilled water + Tween-80): 120 % of control | T/C (dose: 50.0 mg/kg/injection, schedule: Q04DX003 (ip), vehicle: distilled water + Tween-80): 110 % of control

CC1C(=O)OC(C)(C)C1(C)C (centres undefined)
T/C [2]: 98 % of control | T/C [3]: 98 % of control | T/C [13]: 104 % of control

CCc1nc2cc(C)c(C)cc2[nH]1
T/C [1]: 97 % of control | T/C [2]: 100 % of control | T/C [16]: 89 % of control | T/C [3]: 95 % of control | T/C [17]: 89 % of control | T/C [13]: 93 % of control

Cc1ccc(C2=C(Cl)C(=O)C(c3ccc(C)cc3)=C(Cl)C2=O)cc1
T/C (dose: 75.0 mg/kg/injection, schedule: Q01DX001 (ip), vehicle: other): 92 % of control | T/C (dose: 150.0 mg/kg/injection, schedule: Q01DX001 (ip), vehicle: other): 92 % of control | T/C (dose: 300.0 mg/kg/injection, schedule: Q01DX001 (ip), vehicle: other): 94 % of control

COc1cc(NS(C)(=O)=O)ccc1Nc1c2ccc(Cl)cc2nc2c(OC)cccc12
T/C [1]: 106 % of control | T/C (dose: 66.0 mg/kg/injection, schedule: Q04DX003 (ip), vehicle: saline with Tween-80): 238 % of control | T/C (dose: 100.0 mg/kg/injection, schedule: Q04DX003 (ip), vehicle: saline sonified): 168 % of control | T/C [13]: 273 % of control | T/C (dose: 150.0 mg/kg/injection, schedule: Q04DX003 (ip), vehicle: saline with Tween-80): 88 % of control | T/C (dose: 200.0 mg/kg/injection, schedule: Q04DX003 (ip), vehicle: saline sonified): 154 % of control

Clc1cc(Cl)cc(-c2cc(Cl)cc(Cl)c2)c1
T/C (dose: 100.0 mg/kg/injection, schedule: Q01DX001 (ip), vehicle: carboxymethylcellulose (CMC)): 101 % of control | T/C (dose: 200.0 mg/kg/injection, schedule: Q01DX001 (ip), vehicle: carboxymethylcellulose (CMC)): 92 % of control | T/C (dose: 400.0 mg/kg/injection, schedule: Q01DX001 (ip), vehicle: carboxymethylcellulose (CMC)): 95 % of control

O=C(O)/C=C(/Br)C(=O)O
T/C (dose: 100.0 mg/kg/injection, schedule: Q01DX001 (ip), vehicle: saline): 97 % of control | T/C (dose: 200.0 mg/kg/injection, schedule: Q01DX001 (ip), vehicle: saline): 108 % of control

NC(=Nc1ccccc1)Nc1ccccc1
T/C (dose: 6.25 mg/kg/injection, schedule: Q04DX002 (ip), vehicle: Klucel (hydroxypropylcellulose) (HPC)): 96 % of control | T/C (dose: 12.5 mg/kg/injection, schedule: Q04DX002 (ip), vehicle: Klucel (hydroxypropylcellulose) (HPC)): 86 % of control | T/C (dose: 25.0 mg/kg/injection, schedule: Q04DX002 (ip), vehicle: Klucel (hydroxypropylcellulose) (HPC)): 92 % of control | T/C [3]: 101 % of control

C=CCn1c2ccccc2c2c(C)c3cnccc3c(C)c21
T/C [16]: 96 % of control and 102 % of control | T/C [17]: 100 % of control and 102 % of control | T/C [13]: 103 % of control and 104 % of control | T/C [14]: 113 % of control and 116 % of control

S=c1nccc[nH]1
T/C [18]: 105 % of control

CC(=O)SCC(C)CCl (centres undefined)
T/C [7]: 101 % of control | T/C [9]: 98 % of control | T/C (dose: 400.0 mg/kg/injection, schedule: Q01DX009 (ip), vehicle: saline): 104 % of control

CC(=O)NCCN=Cc1ccccc1
T/C [4]: 97 % of control | T/C [13]: 95 % of control | T/C [5]: 95 % of control | T/C [14]: 95 % of control | T/C [12]: 97 % of control | T/C [15]: 97 % of control

O=C(O)C1C(C(=O)O)C(C(=O)O)C1C(=O)O (centres undefined)
T/C [3]: 109 % of control | T/C [4]: 95 % of control | T/C [5]: 108 % of control

COC(=O)CC(=O)OCC1C=CCC=C1
T/C [4]: 98 % of control | T/C [5]: 98 % of control | T/C [12]: 100 % of control

O=C(O)c1ccccc1C(=O)Nc1nccs1
T/C (dose: 50.0 mg/kg/injection, schedule: Q01DX009 (ip), vehicle: Klucel (hydroxypropylcellulose) (HPC)): 97 % of control | T/C (dose: 100.0 mg/kg/injection, schedule: Q01DX009 (ip), vehicle: Klucel (hydroxypropylcellulose) (HPC)): 105 % of control | T/C (dose: 200.0 mg/kg/injection, schedule: Q01DX009 (ip), vehicle: Klucel (hydroxypropylcellulose) (HPC)): 101 % of control

O=S(=O)(CCCCCl)Nc1ccccn1
T/C [18]: 91 % of control | T/C (dose: 200.0 mg/kg/injection, schedule: Q04DX002 (ip), vehicle: saline with Tween-80): 94 % of control | T/C (dose: 400.0 mg/kg/injection, schedule: Q04DX002 (ip), vehicle: saline with Tween-80): 109 % of control

CCOC(=O)Cc1ccncc1CC
T/C (dose: 100.0 mg/kg/injection, schedule: Q01DX001 (ip), vehicle: saline with Tween-80): 94 % of control | T/C [4]: 97 % of control | T/C (dose: 200.0 mg/kg/injection, schedule: Q01DX001 (ip), vehicle: saline with Tween-80): 91 % of control | T/C [5]: 104 % of control | T/C (dose: 400.0 mg/kg/injection, schedule: Q01DX001 (ip), vehicle: saline with Tween-80): 100 % of control | T/C [12]: 101 % of control

[NH-]NC(=S)[S-].[NH-]NC(=S)[S-].[Pd]
T/C [13]: 91 % of control
